Source: patent publication US7119075B2, “Use of herbal agents for potentiation of bioefficacy of anti infectives” (priority 2003, dated 2006)

What was measured:
Assay in all cases: Inhibitory effect of bioenhancers alone
Type in all cases: cell-based
Salmonella typhi AIIMS 2 = test system: Salmonella typhi AIIMS 2
Bacillus cereus RRL 02 = test system: Bacillus cereus RRL 02
[1] = test system: Mycobacterium avium ATCC 49601
[2] = test system: Staphylococcus hemolyticus ATCC 29978
[3] = test system: Mycobacterium tuberculosis H37Rv
[4] = test system: Pseudomonas aeruginosa ATCC 27583
[5] = test system: Klebsiella pneumoniae ATCC 75388
[6] = test system: Methicillin Resistant Staphylococcus aureus (MRSA)
[7] = test system: Staphylococcus epidermidis ATCC 12228
[8] = test system: Staphylococcus aureus ATCC 29313
[9] = test system: Escherichia coli ATCC 25922
[10] = test system: Aspergillus fumigatus SI-1
[11] = test system: Aspergillus flavus MTCC 1973
[12] = test system: Candida tropicalis ATCC 750
[13] = test system: Mycobacterium tuberculosis 615
Candida krusei ATCC 6258 = test system: Candida krusei ATCC 6258
[14] = test system: Mycobacterium intracelluare ATCC 13950

Measured: inhibitory effect

3′,5-Dihydroxy flavone 7-O-β-D-galacturonide-4′-O-β-D-glucopyranoside [pure molecule of Cuminum cyminum]
++++ (No inhibition): Salmonella typhi AIIMS 2; conc. 0.2 μg/ml | Salmonella typhi AIIMS 2; conc. 0.8 μg/ml | Salmonella typhi AIIMS 2; conc. 3.12 μg/ml | Salmonella typhi AIIMS 2; conc. 12.5 μg/ml | Salmonella typhi AIIMS 2; conc. 50 μg/ml | Salmonella typhi AIIMS 2; conc. 100 μg/ml | Bacillus cereus RRL 02; conc. 0.2 μg/ml | Bacillus cereus RRL 02; conc. 0.8 μg/ml | Bacillus cereus RRL 02; conc. 3.12 μg/ml | Bacillus cereus RRL 02; conc. 12.5 μg/ml | Bacillus cereus RRL 02; conc. 50 μg/ml | Bacillus cereus RRL 02; conc. 100 μg/ml | [1]; conc. 0.2 μg/ml | [1]; conc. 0.8 μg/ml | [1]; conc. 3.12 μg/ml | [1]; conc. 12.5 μg/ml | [1]; conc. 50 μg/ml | [1]; conc. 100 μg/ml | [2]; conc. 0.2 μg/ml | [2]; conc. 0.8 μg/ml | [2]; conc. 3.12 μg/ml | [2]; conc. 12.5 μg/ml | [2]; conc. 50 μg/ml | [2]; conc. 100 μg/ml | [3]; conc. 0.2 μg/ml | [3]; conc. 0.8 μg/ml | [3]; conc. 3.12 μg/ml | [3]; conc. 12.5 μg/ml | [3]; conc. 50 μg/ml | [3]; conc. 100 μg/ml | [4]; conc. 0.2 μg/ml | [4]; conc. 0.8 μg/ml | [4]; conc. 3.12 μg/ml | [4]; conc. 12.5 μg/ml | [4]; conc. 50 μg/ml | [4]; conc. 100 μg/ml | [5]; conc. 0.2 μg/ml | [5]; conc. 0.8 μg/ml | [5]; conc. 3.12 μg/ml | [5]; conc. 12.5 μg/ml | [5]; conc. 50 μg/ml | [5]; conc. 100 μg/ml | [6]; conc. 0.2 μg/ml | [6]; conc. 0.8 μg/ml | [6]; conc. 3.12 μg/ml | [6]; conc. 12.5 μg/ml | [6]; conc. 50 μg/ml | [6]; conc. 100 μg/ml | [7]; conc. 0.2 μg/ml | [7]; conc. 0.8 μg/ml | [7]; conc. 3.12 μg/ml | [7]; conc. 12.5 μg/ml | [7]; conc. 50 μg/ml | [7]; conc. 100 μg/ml | [8]; conc. 0.2 μg/ml | [8]; conc. 0.8 μg/ml | [8]; conc. 3.12 μg/ml | [8]; conc. 12.5 μg/ml | [8]; conc. 50 μg/ml | [8]; conc. 100 μg/ml | [9]; conc. 0.2 μg/ml | [9]; conc. 0.8 μg/ml | [9]; conc. 3.12 μg/ml | [9]; conc. 12.5 μg/ml | [9]; conc. 50 μg/ml | [9]; conc. 100 μg/ml | [10]; conc. 0.2 μg/ml | [10]; conc. 0.8 μg/ml | [10]; conc. 3.12 μg/ml | [10]; conc. 12.5 μg/ml | [10]; conc. 50 μg/ml | [10]; conc. 100 μg/ml | [11]; conc. 0.2 μg/ml | [11]; conc. 0.8 μg/ml | [11]; conc. 3.12 μg/ml | [11]; conc. 12.5 μg/ml | [11]; conc. 50 μg/ml | [11]; conc. 100 μg/ml | [12]; conc. 0.2 μg/ml | [12]; conc. 0.8 μg/ml | [12]; conc. 3.12 μg/ml | [12]; conc. 12.5 μg/ml | [12]; conc. 50 μg/ml | [12]; conc. 100 μg/ml | [13]; conc. 0.2 μg/ml | [13]; conc. 0.8 μg/ml | [13]; conc. 3.12 μg/ml | [13]; conc. 12.5 μg/ml | [13]; conc. 50 μg/ml | [13]; conc. 100 μg/ml | Candida krusei ATCC 6258; conc. 0.2 μg/ml | Candida krusei ATCC 6258; conc. 0.8 μg/ml | Candida krusei ATCC 6258; conc. 3.12 μg/ml | Candida krusei ATCC 6258; conc. 12.5 μg/ml | Candida krusei ATCC 6258; conc. 50 μg/ml | Candida krusei ATCC 6258; conc. 100 μg/ml | [14]; conc. 0.2 μg/ml | [14]; conc. 0.8 μg/ml | [14]; conc. 3.12 μg/ml | [14]; conc. 12.5 μg/ml | [14]; conc. 50 μg/ml | [14]; conc. 100 μg/ml
